Test results published in patent US7842802B2, “Vinorelbine derivatives” (priority 2003, dated 2010).
Where a name gives a salt, the structure may show the parent alone. Read-outs that look alike come from different tables or passages of the source.

Tests used:
[1] = test system: MCF-7 human breast carcinoma line; test: MCF-7 GI50 determination (crystal violet); type: cell-based; conditions: Homo sapiens, MCF7, 96 h, read-out: MCF-7 Cells GI50
Method: Growth inhibition (GI50) values were measured on the human breast carcinoma line, MCF-7. MCF-7 cells were plated at 2×10^4 cells/well in 96 well plates and grown for 24 hours in drug free media. On day 2, test compounds were added to the plates at 10-fold dilutions. Four days later, cells were fixed by the addition of glutaraldehyde to 0.75%. After 30 min, the fixed cells were extensively rinsed with distilled water and dried at room temperature for one hour. The cells were then stained with a 0.2% crystal violet solution for one hour at room temperature. Unbound stain was removed by ten rinses with tap water and plates were allowed to air dry for 30 min. The crystal violet was then solubilized by the addition of 10% acetic acid for 15 min and quantified by measuring absorbance at 570 nm on a Molecular Devices microplate reader. Growth inhibition was calculated according to the following equation: GI=[…], where the optical density (OD) of the test well after 4 days of treatment was T, the OD of the wells in the control plate on day 0 was T0. Plots of percent growth inhibition versus inhibitor concentration were used to determine the GI50.

[2] = test system: HeLa S-3 human cervical carcinoma cell line; test: HeLa GI50 determination (SRB); type: cell-based; conditions: Homo sapiens, HeLa S3, 48 h, read-out: HeLa Cells GI50
Method: Growth inhibition (GI50) values were measured on the human cervical carcinoma cell line, HeLa S-3, which were selected for growth on plastic. The HeLa cell assay was based on the description of Skehan et al., J. Natl. Cancer Inst., 82:1107-12 (1990), which is hereby incorporated by reference in its entirety. HeLa cells were plated at 2×10^4 cells/well in 96 well plates. One day later, a control plate was fixed by the addition of TCA to 5%. After five rinses with tap water, the plate was air-dried and stored at 4° C. Test compounds were added to the remaining plates at 10-fold dilutions. Two days later, all plates were fixed as described above. Cells were then stained by the addition of 100 μL per well of 0.4% sulforhodamine B (SRB) in 1% acetic acid for 30 min at 4° C. Wells were then quickly rinsed 5× with 1% acetic acid and allowed to air dry. The SRB was then solubilized by the addition of 100 μL per well of unbuffered 10 mM Tris base. Dye was quantified by measuring absorbance at 490 nm on a Molecular Devices microplate reader. Growth inhibition was calculated according to the following equation: GI=100×(T−T0)/(C−T0), where the optical density (OD) of the test well after 2 days of treatment was T, the OD of the wells in the control plate on day 0 was T0 and C was the OD of untreated wells. Plots of percent growth inhibition versus inhibitor concentration were used to determine the GI50.

[3] = MCF-7, 4 days of treatment, crystal violet
[4] = HeLa S-3, 2 days of treatment, SRB

Row | SMILES | melting point | GI50 [1, 3] | GI50 [2, 4] | GI50 [1] | GI50 [2]
1 | CCC1=C[C@H]2CN(C1)Cc1c([nH]c3ccc(SCCC(=O)OC)cc13)[C@@](C(=O)OC)(c1cc3c(cc1OC)N(C)[C@H]1[C@@](O)(C(=O)OC)[C@H](OC(C)=O)C4C(CC)=CCN5CC[C@]31[C@H]45)C2 (stereo partly drawn) (as salt: tartrate) [Example 7, 11′-(methoxycarbonylethylsulfanyl) vinorelbine] | 140 to 170 °C (dec.) |  |  |  | 
2 | CCC1=C[C@H]2CN(C1)Cc1c([nH]c3ccc(C#CCOC)cc13)[C@@](C(=O)OC)(c1cc3c(cc1OC)N(C)[C@H]1[C@@](O)(C(=O)OC)[C@H](OC(C)=O)C4C(CC)=CCN5CC[C@]31[C@H]45)C2 (stereo partly drawn) [Example 24, 11′-(3-methoxypropynyl)vinorelbine] |  | 300 nM | 100 nM |  | 
3 | CCC1=C[C@H]2CN(C1)Cc1c([nH]c3ccc(C#N)cc13)[C@@](C(=O)OC)(c1cc3c(cc1OC)N(C)[C@H]1[C@@](O)(C(=O)OC)[C@H](OC(C)=O)C4C(CC)=CCN5CC[C@]31[C@H]45)C2 (stereo partly drawn) [Example 25, 11′-cyanovinorelbine] |  | 6 nM | 1 nM |  | 
4 | CCC1=C[C@H]2CN(C1)Cc1c([nH]c3ccc(C(C)=O)cc13)[C@@](C(=O)OC)(c1cc3c(cc1OC)N(C)[C@H]1[C@@](O)(C(=O)OC)[C@H](OC(C)=O)C4C(CC)=CCN5CC[C@]31[C@H]45)C2 (stereo partly drawn) [Example 26, 11′-acetylvinorelbine] |  | 20 nM | 4 nM |  | 
5 | CCC1=C[C@H]2CN(C1)Cc1c([nH]c3ccc(C(=O)OC)cc13)[C@@](C(=O)OC)(c1cc3c(cc1OC)N(C)[C@H]1[C@@](O)(C(=O)OC)[C@H](OC(C)=O)C4C(CC)=CCN5CC[C@]31[C@H]45)C2 (stereo partly drawn) [Example 27, 11′-(methoxycarbonyl) vinorelbine] |  | 50 nM | 30 nM |  | 
6 | CCC1=C[C@H]2CN(C1)Cc1c([nH]c3ccc(C(=O)OCC(Cl)(Cl)Cl)cc13)[C@@](C(=O)OC)(c1cc3c(cc1OC)N(C)[C@H]1[C@@](O)(C(=O)OC)[C@H](OC(C)=O)C4C(CC)=CCN5CC[C@]31[C@H]45)C2 (stereo partly drawn) [Example 28, 11′-(2,2,2-trichloroethoxycarbonyl) vinorelbine] |  |  |  | > 1000 nM | 300 nM
7 | CCC1=C[C@H]2CN(C1)Cc1c([nH]c3ccc(C(=O)OCC(Cl)Cl)cc13)[C@@](C(=O)OC)(c1cc3c(cc1OC)N(C)[C@H]1[C@@](O)(C(=O)OC)[C@H](OC(C)=O)C4C(CC)=CCN5CC[C@]31[C@H]45)C2 (stereo partly drawn) [Example 29, 11′-(2,2-dichloroethoxycarbonyl)vinorelbine] |  | 300 nM | 70 nM |  | 
8 | CCC1=C[C@H]2CN(C1)Cc1c([nH]c3ccc(-c4ccccc4)cc13)[C@@](C(=O)OC)(c1cc3c(cc1OC)N(C)[C@H]1[C@@](O)(C(=O)OC)[C@H](OC(C)=O)C4C(CC)=CCN5CC[C@]31[C@H]45)C2 (stereo partly drawn) [Example 30, 11′-phenylvinorelbine] |  | 300 nM | 70 nM |  | 
9 | CCC1=C[C@H]2CN(C1)Cc1c([nH]c3ccc(-c4cccc(O)c4)cc13)[C@@](C(=O)OC)(c1cc3c(cc1OC)N(C)[C@H]1[C@@](O)(C(=O)OC)[C@H](OC(C)=O)C4C(CC)=CCN5CC[C@]31[C@H]45)C2 (stereo partly drawn) [Example 31, 11′-(3-hydroxyphenyl) vinorelbine] |  | 600 nM | 300 nM |  | 
10 | CCC1=C[C@H]2CN(C1)Cc1c([nH]c3ccc(-c4c(C)noc4C)cc13)[C@@](C(=O)OC)(c1cc3c(cc1OC)N(C)[C@H]1[C@@](O)(C(=O)OC)[C@H](OC(C)=O)C4C(CC)=CCN5CC[C@]31[C@H]45)C2 (stereo partly drawn) [Example 32, 11′-(3,5-dimethylisoxazol-4yl)vinorelbine] |  | 400 nM | 300 nM |  | 
11 | CCC1=C[C@H]2CN(C1)Cc1c([nH]c3ccc(C)cc13)[C@@](C(=O)OC)(c1cc3c(cc1OC)N(C)[C@H]1[C@@](OC)(C(=O)OC)[C@H](OC(C)=O)C4C(CC)=CCN5CC[C@]31[C@H]45)C2 (stereo partly drawn) [Example 33, 3,11′-dimethyl vinorelbine] |  | 50 nM | 30 nM |  | 
12 | CCC1=C[C@H]2CN(C1)Cc1c([nH]c3ccc(I)cc13)[C@@](C(=O)OC)(c1cc3c(cc1OC)N(C)[C@H]1[C@@](OC)(C(=O)OC)[C@H](OC(C)=O)C4C(CC)=CCN5CC[C@]31[C@H]45)C2 (stereo partly drawn) [Example 34, 3-methyl-11′-iodo vinorelbine] |  | 30 nM | 30 nM |  | 
13 | CCC1=C[C@H]2CN(C1)Cc1c([nH]c3ccc(N)cc13)[C@@](C(=O)OC)(c1cc3c(cc1OC)N(C)[C@H]1[C@@](O)(C(=O)OC)[C@H](OC(C)=O)C4C(CC)=CCN5CC[C@]31[C@H]45)C2 (stereo partly drawn) [Example 35, 11′-aminovinorelbine] |  | 600 nM | 300 nM |  | 
14 | CCC1=C[C@H]2CN(C1)Cc1c([nH]c3ccc(Nc4ccc(OC)cc4)cc13)[C@@](C(=O)OC)(c1cc3c(cc1OC)N(C)[C@H]1[C@@](O)(C(=O)OC)[C@H](OC(C)=O)C4C(CC)=CCN5CC[C@]31[C@H]45)C2 (stereo partly drawn) [Example 36, 11′-(4-methoxyphenylamino)vinorelbine] |  | 400 nM | 300 nM |  | 
